From US7612087B2, “Heterocyclic compounds as inhibitors of beta-lactamases” (Novexel, priority 2002, dated 2009)
Structures can show the parent of a compound that is named as a salt.

How the values were obtained:
β-lactamase P99 = molecular target: T1, β-lactamase P99 (Enterobacter cloacae, UniProt P05364); experiment: biochemical; conditions: 100 μM Nitrocefin, 50 mM sodium phosphate buffer pH7.0, 37° C.; read-out: IC50 nM/P99
T1 construct: The β-lactamases are isolated from bacterial strains which are resistant to penicillins and cephalosporins; endogenous in cells; host or cells: Enterobacter cloacae 293HT6 (natural producer; French-press lysate, 100,000 g supernatant)
Method: (§1) A. Preparation of the β-lactamases Tem-1 and P99
(§2) The β-lactamases are isolated from bacterial strains which are resistant to penicillins and cephalosporins (Tem1 and P99 are produced by E.coli 250HT21 and E.Cloacae 293HT6 respectively).
(§3) The bacteria are cultured at 37° C. in heart-brain culture at 37 g/l (DIFCO). They are harvested at the end of the exponential phase, cooled down and centrifuged. The bacterial pellets are taken up in sodium phosphate buffer 50 mM, pH 7.0 and centrifuged again. The bacteria are taken up in two volumes of the same buffer and lyzed using a French-Press maintained at 4° C. After centrifugation for 1 hour at 100,000 g, at 4° C., the supernatants containing the soluble fraction of the bacterial extracts are recovered and frozen at −80° C.
(§4) The method uses Nitrocefin (OXOID), cephalosporin chromogene as substrate, of which the product hydrolyzed by the B-lactamases is red and absorbs at 485 nm. Beta-lactamase activity is determined kinetically by measurement of the absorbance variation at 485 nm resulting from the hydrolysis of the substrate using a plate spectrophotometer (Spectra Max More Molecular Devices). The experiments are carried out at 37° C. The quantity of enzyme was normalized and the measurements are carried out at initial speed.
(§5) Two measurements were carried out, without preincubation and with preincubation of the enzyme and inhibitor (5 mn), in order to test the irreversibility of the reaction. The products are tested at 6 or 8 concentrations in duplicate. The reaction mixture contains 100 μM of Nitrocefin and 50 mM sodium phosphate buffer pH7.0.
(§6) The hydrolysis speeds are measured with and without inhibitor. The concentration of inhibitor which inhibits by 50% the hydrolysis reaction of Nitrocefin by the enzyme (CI50) is determined. The data is processed using GraFit software (Erathycus Software).

β-lactamase TEM1 = molecular target: T2, β-lactamase TEM1 (Escherichia coli, UniProt P62593); experiment: Inhibition of isolated β-lactamase Tem-1 (Nitrocefin hydrolysis); format: biochemical, E.coli 250HT21; conditions: 100 μM Nitrocefin, 50 mM sodium phosphate buffer pH7.0, 37° C.
T2 construct: The β-lactamases are isolated from bacterial strains which are resistant to penicillins and cephalosporins; endogenous in cells; host or cells: E. coli 250HT21 (natural producer; French-press lysate, 100,000 g supernatant)
Method: as §1, §2, §3, §4, §5, §6

T2 sequence (P62593 24-286 limits assumed): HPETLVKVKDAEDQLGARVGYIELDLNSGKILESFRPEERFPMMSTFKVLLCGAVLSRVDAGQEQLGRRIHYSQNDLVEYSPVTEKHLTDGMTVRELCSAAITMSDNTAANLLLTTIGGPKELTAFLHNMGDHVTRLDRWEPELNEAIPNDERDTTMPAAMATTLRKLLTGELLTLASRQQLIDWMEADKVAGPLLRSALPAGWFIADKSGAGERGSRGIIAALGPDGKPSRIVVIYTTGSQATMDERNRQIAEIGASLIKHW
T1 sequence (P05364 21-381): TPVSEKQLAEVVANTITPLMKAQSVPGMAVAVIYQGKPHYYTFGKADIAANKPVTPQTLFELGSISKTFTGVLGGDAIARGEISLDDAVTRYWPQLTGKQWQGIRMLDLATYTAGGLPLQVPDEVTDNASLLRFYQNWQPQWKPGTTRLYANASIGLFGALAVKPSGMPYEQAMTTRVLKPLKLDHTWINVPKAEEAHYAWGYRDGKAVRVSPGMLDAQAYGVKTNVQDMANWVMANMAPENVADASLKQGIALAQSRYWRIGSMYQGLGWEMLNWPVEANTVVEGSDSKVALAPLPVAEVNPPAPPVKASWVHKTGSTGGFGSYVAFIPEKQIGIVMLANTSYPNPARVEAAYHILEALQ

Compound	IC50 (β-lactamase P99)	IC50 (β-lactamase TEM1)
6-benzoyl—N—[methyl(phenylmethyl)]-7-oxo-1,6-diazabicyclo[3.2.1]octane-2-carboxamide [Example 29e]	6300 nM	4200 nM
O=C(O)CC[C@@H]1CCN2C[C@H]1OC2=O (relative stereo) [Example 1a, cis-7-oxo-6-oxa-1-azabicyclo[3.2.1]octane-4-propanoic acid]	> 10000 nM	700 nM
O=C(C[C@@H]1CCN2C[C@@H]1OC2=O)OC(c1ccccc1)c1ccccc1 (relative stereo) [Example 2, Trans diphenylmethyl 7-oxo-6-oxa-1-azabicyclo[3.2.1]octan-4-acetate]	–	462 nM
O=C(O)C[C@@H]1CCN2C[C@@H]1OC2=O (relative stereo) [Example 2a, trans-7-oxo-6-oxa-1-azabicyclo[3.2.1]octan-4-acetic acid]	–	6730 nM
O=C(C[C@@H]1CCN2C[C@H]1OC2=O)OC(c1ccccc1)c1ccccc1 (relative stereo) [Example 3, cis diphenylmethyl 7-oxo-6-oxa-1-azabicyclo[3.2.1]octan-4-acetate]	9800 nM	590 nM
O=C(O)C[C@@H]1CCN2C[C@H]1OC2=O (relative stereo) [Example 3a, cis-7-oxo-6-oxa-1-azabicyclo[3.2.1]octan-4-acetic acid]	–	4400 nM
COC(=O)C[C@@H]1CCN2C[C@H]1OC2=O (relative stereo) [Example 3b, cis methyl 7-oxo-6-oxa-1-azabicyclo[3.2.1]octan-4-acetate]	–	2010 nM
N#CC[C@@H]1CCN2C[C@H]1OC2=O (relative stereo) [Example 4, cis-7-oxo-6-oxa-1-azabicyclo[3.2.1]octan-4-acetonitrile]	–	2710 nM
O=C(OCc1ccccc1)[C@H]1C[C@@H]2CN1C(=O)N2C(=O)c1ccccc1 (relative stereo) [Example 7a, trans phenylmethyl 3-benzoyl-2-oxo-1,3-diazabicyclo[2.2.1]heptane-6-carboxylate]	17 nM	55 nM
O=C(OCc1ccccc1)[C@H]1C[C@@H]2CN1C(=O)N2S(=O)(=O)c1ccccc1 (relative stereo) [Example 8, trans phenylmethyl 2-oxo-3-(phenylsulphonyl)-1,3-diazabicyclo[2.2.1]heptane-6-carboxylate]	62 nM	1400 nM
C[C@@]12C[C@H](C(=O)OCc3ccccc3)N(C1)C(=O)N2C(=O)c1ccccc1 (relative stereo) [Example 9, trans phenylmethyl 3-benzoyl-4-methyl-2-oxo-1,3-diazabicyclo[2.2.1]heptane-6-carboxylate]	630 nM	8500 nM
O=C(OCc1ccccc1)[C@@H]1C[C@@H]2CN1C(=O)N2OS(=O)(=O)O (relative stereo) [Example 10, 1-propenyltriphenylphosphonium salt of trans phenylmethyl 2-oxo-3-(sulphooxy)-1,3-diazabicyclo[2.2.1]heptane-6-carboxylate]	1.5 nM	0.26 nM
COC(=O)[C@@H]1CC[C@@H]2CN1C(=O)O2 (relative stereo) [Example 26c, trans methyl 7-oxo-6-oxa-1-azabicyclo[3.2.1]octane-2-carboxylate]	7000 nM	1100 nM
O=C(NCc1ccccc1)[C@@H]1CC[C@@H]2CN1C(=O)N2C(=O)c1ccccc1 (relative stereo) [Example 29d, trans-6-benzoyl-7-oxo-N-(phenylmethyl)-1,6-diazabicyclo[3.2.1]octane-2-carboxamide]	2000 nM	9500 nM
O=C(c1ccccc1)N1C(=O)N2CCC1C2 (centres unmarked) [Example 5, 3-benzoyl-1,3-diazabicyclo[2.2.1]heptan-2-one]	–	1010 nM
O=C(c1ccccc1)N1C(=O)N2CCCC1C2 (centres unmarked) [Example 14, 6-benzoyl-1,6-diazabicyclo[3.2.1]octan-7-one]	–	6400 nM
Cc1ccc(S(=O)(=O)ON2C(=O)N3CCCC2C3)cc1 (centres unmarked) [Example 19e, 6-[[(4-methylphenyl)sulphonyl]oxy]-1,6-diazabicyclo[3.2.1]octan-7-one]	–	11 nM
CS(=O)(=O)ON1C(=O)N2CCCC1C2 (centres unmarked) [Example 19f, 6-[(methylsulphonyl)oxy]-1,6-diazabicyclo[3.2.1]octan-7-one]	–	110 nM
O=C1N2CCCC(C2)N1OS(=O)(=O)c1ccc([N+](=O)[O-])cc1 (centres unmarked) [Example 19g]	–	29 nM
O=C1OC2C=CCN1C2 (centres unmarked) [Example 22, 6-oxa-1-azabicyclo[3.2.1]oct-3-en-7-one]	–	5100 nM
O=C(O)C1CCC2CN1C(=O)O2 (stereo not drawn) [Example 26b, trans-7-oxo-6-oxa-1-azabicyclo[3.2.1.]octane-2 carboxylic acid]	–	4900 nM
O=C(OCc1ccccc1)C1CCC2CN1C(=O)N2OS(=O)(=O)O (stereo not drawn) [Example 28b, Sodium salt of trans phenylmethyl 7-oxo-6-(sulphooxy)-1,6-diazabicyclo[3.2.1]octane-2-carboxylate]	12 nM	9.5 nM
O=C(OCc1ccccc1)C1CCC2CN1C(=O)N2OS(=O)(=O)c1cccs1 (stereo not drawn) [Example 28d, trans pheylmethyl 7-oxo-6-[(2-thienylsulphonyl)oxy]-1,6-diazabicyclo[3.2.1]octane-2-carboxylate]	390 nM	1.3 nM
O=C(O)C1CCC2CN1C(=O)N2C(=O)c1ccccc1 (stereo not drawn) [Example 29b, trans-6-benzoyl-7-oxo-1,6-iazabicyclo[3.2.1]octane-2-carboxylic acid]	4200 nM	460 nM
O=C(c1ccccc1)N1C(=O)N2CC1CCC2CO (centres unmarked) [Example 29f, 6-benzoyl-2-(hydroxymethyl)-1,6-diazabicyclo[3.2.1]octan-7-one]	–	5200 nM
C=CCOC(=O)N1C(=O)N2CC1CCC2C(=O)OCc1ccc([N+](=O)[O-])cc1 (stereo not drawn) [Example 31, trans (4-nitrophenyl)methyl and 2-propenyl 7-oxo-1,6-diazabicyclo[3.2.1]octane-2,6-dicarboxylate]	–	5700 nM
COC1=CC2CN(C1)C(=O)N2OS(=O)(=O)O (centres unmarked) [Example 52, Sodium salt of 3-methoxy-6-(sulphooxy)-1,6-diazabicyclo[3.2.1]oct-3-in-7-one]	4600 nM	11 nM
O=C1N2CC=CC(C2)N1OS(=O)(=O)O (centres unmarked) [Example 53, Sodium salt of 6-(sulphooxy)-1,6-diazabicyclo[3.2.1]oct-3-in-7-one]	5900 nM	15 nM
O=C1N2CCCC(C2)N1OS(=O)(=O)O (centres unmarked) [Example 54, Sodium salt of 6-(sulphooxy)-1,6-diazabicyclo[3.2.1]octan-7-one]	–	3100 nM
trans phenylmethyl 6-(2-hydroxy-2-oxoethoxy)-7-oxo-1,6-diazabicyclo[3.2.1]octane-2-carboxylate [Example 28e]	–	52 nM
